Patent US20190083437A1, “S- Methylcysteine Sulfoxide For Prostate Cancer Prevention And Treatment” (QUADRAM INSTITUTE BIOSCIENCE, priority 2016, published 2019)

Assays:
[1] = within 24 h, radioactive SMCSO to humans; cited from earlier work
[2] = SMCSO bioavailability from single dietary supplementation with Beneforte broccoli and stilton soup (plasma and urine over 24 h); type: in vivo, human
Description: Exposure of prostate tissues to S-methylcysteine sulfoxide may occur either through the systemic circulation in the blood stream, or through urinary reflux. Indeed, urinary reflux into prostatic ducts is common knowledge in the field (Kirby R. S. et al. Intra-prostatic urinary reflux: an aetiological factor in abacterial prostatitis. British Journal of Urology 54, 729-731 (1982)). FIGS. 5 and 6 respectively show the plasma concentration and cumulative excretion of S-methylcysteine sulfoxide in urine following consumption of Beneforté™ broccoli (described, for example, in WO99/052345) and Stilton soup containing 1.2 mmoles of S-methylcysteine sulfoxide.
The change in plasma concentration of S-methylcysteine sulfoxide was recorded over 24 hours in ten patients.
Ten patients took part in this study. The total S-methylcysteine sulfoxide excreted represented 23% of that consumed.
A dietary intervention study was carried out on healthy subjects (n=10) whereby a single event of dietary supplementation was carried out with Beneforte™ broccoli and stilton soup, produced according to the recipe as described in Example 1, providing an effective SMCSO dose of 1.2 mmoles. This was followed by urine and blood collection over 24 h. Plasma and urinary concentrations of SMCSO were measured, see FIGS. 5 (plasma) and 6 (urine). SMCSO concentration in blood plasma increased from a baseline level of 0 μM at the start of the 24 h period to a maximum concentration of 24 μM one hour after consumption of the soup. […] The 24 h cumulative urinary concentration was over 100 μmoles SMCSO.

prostate tissue = assay: Short duration (4-6 weeks) diet intervention study: SMCSO and ADP in prostate biopsy tissue; type: in vivo, human; conditions: three 300 g portions per week (6.4 mmoles SMCSO each) for at least 4 weeks, n=9 per arm, p=0.005
Description: A two arm parallel un-blinded short-term intervention with an enhanced dose of broccoli soups was undertaken. The study recruited men who had been diagnosed or were under investigation for prostate cancer and required a transperineal template biopsy as part of their standard clinical care.
Patients recruited onto this study were randomly allocated to one of two arms in which they were required to consume three portions of broccoli and stilton soup per week for at least four weeks prior to their biopsy (i) or to follow their normal diet until the operation date (ii). The broccoli and stilton soups contained glucoraphanin-enriched Beneforte® broccoli. The study was not blinded and involved tissue, blood and urine collection on the same day that patients were scheduled for their diagnostic biopsy. Their habitual intake of cruciferous vegetables and dietary supplements was assessed. […]
SMCSO was measured by following the method described by Bernaert and colleagues (Bernaert, N., et al., Influence of cultivar and harvest time on the amounts of isoalliin and methiin in leek (Allium ampeloprasum var. porrum). J Agric Food Chem, 2012. 60(44): p. 10910-9). […] After centrifugation, the supernatant was diluted with 0.1% formic acid in water, and analysed by LC-MS/MS using an Agilent 6490 mass spectrometer with a photodiode array detector. […]

[3] = test system: human prostatic PNT1A cell line; assay: ATP levels in prostate cell assay (fluorimetric kit); type: cell-based; conditions: SMCSO 100 μM or 200 μM, 24 hours exposure, vs control cells
Procedure: The concentration of S-methylsulfoxide used in this study (100 μmol to 200 μmop was similar to that found in urine following consumption of 1.0-1.5 mmoles of S-methylcysteine sulfoxide.
Cells of the human prostatic PNT1A cell line were incubated with SMCSO at 100 μM or 200 μM, these concentrations were chosen as they were consistent with the physiological concentrations of SMCSO measured in the human intervention diet study, for example 2-4 hours after consumption of Beneforté™ broccoli soup the concentration of SMCSO in the urine of study subjects ranged from 42.18 μM to 130.17 μM, see Table 1. ATP levels (nmol/mg protein) in control and SMCSO treated cells were measured fluorimetrically using a commercially available kit (Abcam, ab 8335).

[4] = test system: Human prostate PNT1A cells; assay: Cell assay of SMCSO uptake/accumulation in cells (HPLC of whole cell lysates); type: cell-based; conditions: 300 μM SMCSO
Procedure: PNT1A cells were treated with 300μM SMCSO and intracellular levels of SMCSO were quantified following incubation of between 1 h and 72 h. Data shown are means±SD (n=3).
Human prostate PNT1A cells were incubated with 300 μM SMCSO for up to 72 h in triplicate. Whole cell lysates were collected at regular intervals between 0 and 72 h and levels of SMCSO were quantified by HPLC as above. […] Uptake increases up to approximately 30% following 72 h of exposure to SMCSO.

S-methylcysteine sulfoxide [SMCSO]
SMCSO excreted un-metabolised within urine [1]: 6-8% | concentration of SMCSO in urine (up to) ([2]; 0-2 h after consumption, 1.2 mmoles SMCSO): up to 164 uM | likely concentration of SMCSO within a single urination ([2]; 0-2 h after consumption, estimate): > 200 µM | blood plasma levels at the end of the 24 h period ([2]; 1.2 mmoles SMCSO, 24 h): remained elevated above baseline | cumulative urinary SMCSO, mean ([2]; 2-4 hours after dietary supplementation, 1.2 mmoles SMCSO): 71.5 µmol | 24 h cumulative urinary SMCSO ([2]; 24 h, 1.2 mmoles SMCSO): over 100 μmoles | S-methylcysteine sulfoxide excreted in urine (concentration, up to) ([2]; first 0-2 hours, soup containing 1.2 mmoles): up to 163.9 μM | time of maximum plasma concentration after consumption of the soup ([2]; healthy subjects n=10, 1.2 mmoles SMCSO): one | maximum SMCSO concentration in blood plasma ([2]; healthy subjects n=10, single soup portion providing 1.2 mmoles SMCSO, oral): 24 µM | total S-methylcysteine sulfoxide excreted in urine as share of that consumed ([2]; ten patients, 1.2 mmoles, cumulative): 23% | SMCSO accumulation in prostate biopsy tissue, intervention vs non-intervention arm (prostate tissue): increased accumulation | cellular concentration of ATP [3]: reduced | cellular uptake of SMCSO (speed) [4]: rapid, as early as 1 h | intracellular SMCSO uptake as % of exposure ([4]; 72 h of exposure): approximately 30% | intracellular SMCSO level as % of the initial exposure levels ([4]; constant from 1 h for at least 24 h): 10%
